Assay [1] concerns TNFα. In words: IRAK4 Monocyte TNFα Cell Based Assay (LPS-stimulated, TR-FRET TNFα detection). More on the design: species or system human. The conditions noted are these: Homo sapiens, Monocyte, read-out: EC50 MONO TNF HTRF. The method, then: IRAK4 Monocyte TNFα Cell Based Assay Procedure:
The cell suspension was then plated at a density of 5,000 cells/well onto black 384 well Greiner clear bottom plates. Plates were pre-spotted with test compounds and serially diluted in DMSO where 40 nL/well were delivered using the Echo 550 acoustic liquid dispenser (Labcyte®) for a final DMSO concentration of 0.1%. Plated cells were treated with compound for 1 hour at 37° C. Cells were then stimulated with 50 pg/ml of LPS (Sigma) excluding outside columns of plate used for unstimulated cell control wells. Cells were incubated for an additional 4 hours at 37° C. Cells were then spun out of the media and 5 μl of sample were taken and analyzed for total TNFα content using the TR-FRET Human TNFα detection system (CisBio). This system utilizes two labeled antibodies (cryptate and XL665) that bind to two different epitopes of the TNFα molecule and produce FRET signal proportional to the concentration of TNFα in the sample. Detection antibodies are mixed 50:50 and 5 μL were dispensed into each well. Plates were covered with clear seals and incubated at room temp overnight. […] Percent of control was calculated as follows: % Control=100×(RatioSample−Ratio0% Stimulation)/(Ratio100% Stimulation−Ratio0% Stimulation) where unstimulated cells (0% stimulation) were the negative control and stimulated cells (100% stimulation) were used as the positive control.
In general terms: In TR-FRET formats the signal depends on donor and acceptor labels being close together.

Assay [2] has as its target T1, IRAK4 enzyme (Homo sapiens, UniProt Q9NWZ3).
T1 construct: purchased Carna Biosciences, Chuo-ku, Kobe, Japan
T1 sequence (Q9NWZ3 1-460): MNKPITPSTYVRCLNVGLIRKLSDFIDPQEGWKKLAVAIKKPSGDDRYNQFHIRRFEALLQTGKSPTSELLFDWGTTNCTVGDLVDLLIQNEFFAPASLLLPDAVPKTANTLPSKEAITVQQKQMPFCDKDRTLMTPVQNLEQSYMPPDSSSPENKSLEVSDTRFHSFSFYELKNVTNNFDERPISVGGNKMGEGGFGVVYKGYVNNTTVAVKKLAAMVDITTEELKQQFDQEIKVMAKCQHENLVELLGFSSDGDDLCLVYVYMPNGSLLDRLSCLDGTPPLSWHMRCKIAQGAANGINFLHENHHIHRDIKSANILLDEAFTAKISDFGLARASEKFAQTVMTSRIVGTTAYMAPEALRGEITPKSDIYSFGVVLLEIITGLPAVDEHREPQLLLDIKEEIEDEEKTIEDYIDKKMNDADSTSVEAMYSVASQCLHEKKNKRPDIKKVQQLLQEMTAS
In words: IRAK4 Biochemical Assay (TR-FRET, STK1 KinEASE). The conditions noted are these: 500 μM ATP, Table 2 second part (compounds 33-343), read-out: IC50 IRAK4-HTBS. The method, then: IRAK4 enzyme (Carna Biosciences, Chuo-ku, Kobe, Japan) activity was measured by detecting phosphorylated peptide substrate formation using an antibody against the phosphorylated peptide substrate. This is a time-resolved fluorescence resonance energy transfer (TR-FRET) immunoassay, based on the STK1 KinEASE Assay (Cisbio, Bedford, Massachusetts). The assay was designed as a simple two-step, endpoint assay (a 5 μl enzyme reaction followed by 5 μl stop and detect Solution) performed in ProxiPlate-384 Plus plates (Perkin Elmer, Waltham, Massachusetts). […] Compounds diluted in DMSO were spotted into 384 well plates using a Labcyte® Echo 550 Liquid Handling System prior to addition of IRAK4 enzyme and peptide substrate. Reaction solutions were delivered using a Multi-Flo (Bio-Tek Instruments). The enzyme and peptide solution was incubated with compound for 15 minutes at room temp before the reaction was initiated by the addition of ATP. The standard 5 μl reaction mixture contained 500 μM ATP, 2 μM peptide (STK1 Peptide), 0.75 nM of IRAK4 in reaction buffer (50 mM HEPES, pH 7.0, 0.02% NaN3, 0.01% BSA, 0.1 mM Orthovanadate, 5 mM MgCl2, 0.025% NP-40, 1 mM DTT). After 120 min of incubation at room temperature, 5 μl of Stop and Detect Solution (1:100 Cryptate labeled anti-phosphorylated peptide antibody solution and 125 nM Tracer in a 50 mM HEPES pH 7.0 detection buffer containing sufficient EDTA) was added. The plate was then further incubated for 60 minutes at room temperature and read on Envision 2103 Multilabeled reader (PerkinElmer) with excitation/emission/FRET emission at 340 nm/615 nm/665 nm, respectively. Fluorescence intensities at 615 nm and 665 nm emission wavelengths were expressed as a ratio (665 nm/615 nm).

The mark [3] stands for this setting: human monocytes, LPS-stimulated, Table 2 second part (compounds 33-343).

In general, pEC50 refers to the negative decadic logarithm of the EC50, by convention in mol/L. Broadly, the pIC50 is the IC50 on a negative log10 scale, so that one unit is a factor of ten.

pEC50, pIC50: −log10 of the molar value. Where two headings read alike, the source gives them in different places. Bounds are passed on as bounds.

As for `CC(=O)NC[C@H]1C[C@@H](c2nnc(-c3cnc(-c4ccc5cc(C#N)cnn45)cc3NC(C)C)s2)C1` [Compound 289, N-(((1s,3s)-3-(5-(6-(3-cyanopyrrolo[1,2-b]pyridazin-7-yl)-4-(isopropylamino)pyridin-3-yl)-1,3,4-thiadiazol-2-yl)cyclobutyl)methyl)acetamide], the negative-log EC50 (pEC50) in assay [1] (setting [3]) is 7.67. Besides, the pIC50 in assay [2] was 9.62.

As for `CC(=O)NC[C@H]1C[C@H](c2nnc(-c3cnc(-c4ccc5cc(C#N)cnn45)cc3NC(C)C)s2)C1` [Compound 290, N-(((1r,3r)-3-(5-(6-(3-cyanopyrrolo[1,2-b]pyridazin-7-yl)-4-(isopropylamino)pyridin-3-yl)-1,3,4-thiadiazol-2-yl)cyclobutyl)methyl)acetamide], the pEC50 in assay [1] (setting [3]) was 7.79. The negative logarithm of the IC50 (pIC50) in assay [2] is 9.48.

For the compound `CNc1cc(-c2ccc3cc(C#N)cnn23)ncc1-c1nnc(N2C[C@H]3CC[C@@H](C2)[C@@H]3NC(C)=O)s1` [Compound 292, N-((1R,5S,8s)-3-(5-(6-(3-cyanopyrrolo[1,2-b]pyridazin-7-yl)-4-(methylamino)pyridin-3-yl)-1,3,4-thiadiazol-2-yl)-3-azabicyclo[3.2.1]octan-8-yl)acetamide], the pEC50 in assay [1] (setting [3]) is 8.17. For the same compound, in assay [2], the pIC50 was 9.70.

As to `CC(=O)N(C)[C@@H]1[C@@H]2CC[C@H]1CN(c1nnc(-c3cnc(-c4ccc5cc(C#N)cnn45)cc3NC(C)C)s1)C2` [Compound 300, N-((1R,5S,8s)-3-(5-(6-(3-cyanopyrrolo[1,2-b]pyridazin-7-yl)-4-(isopropylamino)pyridin-3-yl)-1,3,4-thiadiazol-2-yl)-3-azabicyclo[3.2.1]octan-8-yl)-N-methylacetamide], the pEC50 in assay [1] (setting [3]) is 8.28. Besides, the pIC50 in assay [2] is 9.01.

For `CC(C)Nc1cc(-c2ccc3cc(C#N)cnn23)ncc1-c1nnc(N2C[C@H]3CC[C@@H](C2)[C@@H]3N2CCOC2=O)s1` [Compound 301, 7-(4-(isopropylamino)-5-(5-((1R,5S,8s)-8-(2-oxooxazolidin-3-yl)-3-azabicyclo[3.2.1]octan-3-yl)-1,3,4-thiadiazol-2-yl)pyridin-2-yl)pyrrolo[1,2-b]pyridazine-3-carbonitrile], the pEC50 in assay [1] (setting [3]) is 8.31. Also, the negative-log IC50 (pIC50) in assay [2] was 8.98.

As for `CC(C)Nc1cc(-c2ccc3cc(C#N)cnn23)ncc1-c1nnc(N2C[C@H]3CC[C@@H](C2)[C@@H]3Nc2ncccn2)s1` [Compound 308, 7-(4-(isopropylamino)-5-(5-((1R,5S,8s)-8-(pyrimidin-2-ylamino)-3-azabicyclo[3.2.1]octan-3-yl)-1,3,4-thiadiazol-2-yl)pyridin-2-yl)pyrrolo[1,2-b]pyridazine-3-carbonitrile], the pEC50 in assay [1] (setting [3]) was 7.74. Also, the pIC50 in assay [2] was 8.73.

As to `CC(C)Nc1cc(-c2ccc3cc(C#N)cnn23)ncc1-c1nnc(N2C[C@H]3CC[C@@H](C2)[C@@H]3Nc2ncccc2F)s1` [Compound 309, 7-(5-(5-((1R,5S,8s)-8-((3-fluoropyridin-2-yl)amino)-3-azabicyclo[3.2.1]octan-3-yl)-1,3,4-thiadiazol-2-yl)-4-(isopropylamino)pyridin-2-yl)pyrrolo[1,2-b]pyridazine-3-carbonitrile], in assay [1] (setting [3]), the pEC50 was 6.16. Further, in assay [2], the pIC50 was 7.53.

For `CC(C)(O)C(=O)N[C@H]1CC[C@@H](c2nnc(-c3cnc(-c4ccc5cc(C#N)cnn45)cc3NC3COC3)s2)CC1` [Compound 311, N-((1s,4s)-4-(5-(6-(3-cyanopyrrolo[1,2-b]pyridazin-7-yl)-4-(oxetan-3-ylamino)pyridin-3-yl)-1,3,4-thiadiazol-2-yl)cyclohexyl)-2-hydroxy-2-methylpropanamide], the pEC50 in assay [1] (setting [3]) was 7.65. Moreover, the pIC50 in assay [2] is 9.10.

Take `CC(C)Nc1cc(-c2ccc3cc(C#N)cnn23)ncc1-c1nnc([C@H]2CC[C@@H](NC(=O)C(C)(C)O)CC2)s1` [Compound 312, N-((1s,4s)-4-(5-(6-(3-cyanopyrrolo[1,2-b]pyridazin-7-yl)-4-(isopropylamino)pyridin-3-yl)-1,3,4-thiadiazol-2-yl)cyclohexyl)-2-hydroxy-2-methylpropanamide]: the pEC50 in assay [1] (setting [3]) is 7.76. Also, the pIC50 in assay [2] is 9.04.

Turning to `COC(=O)N[C@H]1CC[C@H](Nc2cc(-c3ccc4cc(C#N)cnn34)ncc2-c2nnc([C@H]3CC[C@H](NC(C)=O)CC3)s2)CC1` [Example 34, methyl ((1R,4r)-4-((5-(5-((1r,4R)-4-acetamidocyclohexyl)-1,3,4-thiadiazol-2-yl)-2-(3-cyanopyrrolo[1,2-b]pyridazin-7-yl)pyridin-4-yl)amino)cyclohexyl)carbamate], the negative-log EC50 (pEC50) in assay [1] (setting [3]) was 8.31. Also, the pIC50 in assay [2] is 9.26.

Take `CC(C)Nc1cc(-c2ccc3cc(C#N)cnn23)ncc1-c1nnc(NCC(C)(C)O)s1` [Example 37, 7-(5-(5-((2-hydroxy-2-methylpropyl)amino)-1,3,4-thiadiazol-2-yl)-4-(isopropylamino)pyridin-2-yl)pyrrolo[1,2-b]pyridazine-3-carbonitrile]: the pEC50 in assay [1] (setting [3]) was at most 5.00. Moreover, the pIC50 in assay [2] is at most 6.00.

Consider `CC(=O)N[C@@H]1[C@@H]2CC[C@H]1CN(c1nnc(-c3cnc(-c4ccc5cc(C#N)cnn45)cc3NC(C)C)s1)C2` [Example 38, N-((1R,5S,8s)-3-(5-(6-(3-cyanopyrrolo[1,2-b]pyridazin-7-yl)-4-(isopropylamino)pyridin-3-yl)-1,3,4-thiadiazol-2-yl)-3-azabicyclo[3.2.1]octan-8-yl)acetamide], for which the pEC50 in assay [1] (setting [3]) is 8.46. For the same compound, the pIC50 in assay [2] is 9.10.

Consider `CC(=O)N[C@H]1[C@@H]2CC[C@H]1CN(c1nnc(-c3cnc(-c4ccc5cc(C#N)cnn45)cc3NC(C)C)s1)C2` [Example 39, N-((1R,5S,8r)-3-(5-(6-(3-cyanopyrrolo[1,2-b]pyridazin-7-yl)-4-(isopropylamino)pyridin-3-yl)-1,3,4-thiadiazol-2-yl)-3-azabicyclo[3.2.1]octan-8-yl)acetamide], for which, in assay [1] (setting [3]), the negative logarithm of the EC50 (pEC50) is 7.98. Besides, in assay [2], the pIC50 was 9.05.

Take `CC(=O)N[C@H]1[C@@H]2C[C@H]1CN(c1nnc(-c3cnc(-c4ccc5cc(C#N)cnn45)cc3NC(C)C)s1)C2` [Example 45, N-((1R,5S,6r)-3-(5-(6-(3-cyanopyrrolo[1,2-b]pyridazin-7-yl)-4-(isopropylamino)pyridin-3-yl)-1,3,4-thiadiazol-2-yl)-3-azabicyclo[3.1.1]heptan-6-yl)acetamide]: the pEC50 in assay [1] was 7.93. In assay [2], the pIC50 is 8.95.

`COC(=O)NC[C@H]1C[C@H](Nc2cc(-c3ccc4cc(C#N)cnn34)ncc2-c2nnc(N3CCN4CCOC[C@H]4C3)s2)C1` [Example 51, methyl (((1R,3r)-3-((2-(3-cyanopyrrolo[1,2-b]pyridazin-7-yl)-5-(5-((R)-hexahydropyrazino[2,1-c][1,4]oxazin-8(1H)-yl)-1,3,4-thiadiazol-2-yl)pyridin-4-yl)amino)cyclobutyl)methyl)carbamate]: in assay [1] (setting [3]), the negative-log EC50 (pEC50) is 8.33. Moreover, the pIC50 in assay [2] was 8.76.

Values taken from patent publication US12060351B2, “Thiadiazole IRAK4 inhibitors” (Gilead Sciences, Inc., priority 2018, dated 2024).
